Series [1] deals with T1, PaTrmD (tRNA (m^1G37) methyltransferase TrmD, PA14_15990) (Pseudomonas aeruginosa, UniProt Q02RL6).
T1 sequence (Q02RL6 5-250): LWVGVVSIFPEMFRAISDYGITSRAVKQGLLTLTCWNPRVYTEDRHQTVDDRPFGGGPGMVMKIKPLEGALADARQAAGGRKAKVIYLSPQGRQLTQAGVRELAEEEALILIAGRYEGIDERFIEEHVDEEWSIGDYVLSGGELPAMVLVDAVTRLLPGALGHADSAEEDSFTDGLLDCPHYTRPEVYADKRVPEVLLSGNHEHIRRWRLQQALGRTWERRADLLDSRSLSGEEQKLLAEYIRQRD
In words: ITC with refolded PaTrmD. The class given is binding.

For series [2], the target named is T1, PaTrmD (tRNA (m^1G37) methyltransferase TrmD, PA14_15990). The series is described as follows: crystal structures. The class given is biochemical.
A further series deals with T2, PaTrmD (refolded) (Pseudomonas aeruginosa PA14, UniProt Q02RL6 5-250).
T2 sequence: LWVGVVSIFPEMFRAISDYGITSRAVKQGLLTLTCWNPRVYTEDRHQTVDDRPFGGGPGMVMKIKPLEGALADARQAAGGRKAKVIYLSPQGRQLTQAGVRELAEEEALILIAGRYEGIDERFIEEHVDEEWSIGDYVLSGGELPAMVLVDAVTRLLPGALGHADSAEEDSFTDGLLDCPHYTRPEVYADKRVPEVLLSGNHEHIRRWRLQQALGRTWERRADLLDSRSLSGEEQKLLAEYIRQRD
The series is described as follows: ITC. In general terms: Isothermal titration calorimetry measures the heat released or taken up as one component is titrated into another.

As a reminder, the Kd is the free concentration of one partner at which half of the binding sites on the other are occupied at equilibrium, for simple one-to-one binding. A lower Kd goes with a tighter complex. In series [1], `C[S+](CC[C@H](N)C(=O)[O-])C[C@H]1O[C@@H](n2cnc3c(N)ncnc32)[C@H](O)[C@@H]1O` (stereo partly drawn) [SAM, S-adenosyl-L-methionine] yielded a Kd of 14.4 ± 3.1 µM.
Usually Ki stands for a measure of affinity in units of concentration, obtained from inhibition or displacement. Higher therefore signals lower affinity. Take `Nc1ncnc2c1ncn2[C@@H]1O[C@H](C[C@@H](N)CC[C@H](N)C(=O)O)[C@@H](O)[C@H]1O` [SFG, sinefungin]: the Ki in series [2] turned out to be 0.41 ± 0.07 µM.

B1: tRNALeu(GAG) (structured_RNA)
RNA: GGGGCCGAGGUGGUGGAAUUGGUAGACACGCUACCUUGAGGUGGUAGUGGCCAUAGGCUGUAGGGGUUCGAGUCCCCUCCUCGGUACCA
modifications: none (unmodified transcript)
As for B1, in the series with PaTrmD (refolded), the affinity, expressed as Kd, was 13.6 ± 3 µM.

(Values after paper PMC6795141 (RNA, 2019).)
